Data published in publication PMC3362486 (Chemico-Biological Interactions, 2012).

Tests used:
CYP2A6 [1] = biological target: T1, CYP2A6 (Homo sapiens, UniProt P11509); format: biochemical
T1 sequence (P11509 1-494): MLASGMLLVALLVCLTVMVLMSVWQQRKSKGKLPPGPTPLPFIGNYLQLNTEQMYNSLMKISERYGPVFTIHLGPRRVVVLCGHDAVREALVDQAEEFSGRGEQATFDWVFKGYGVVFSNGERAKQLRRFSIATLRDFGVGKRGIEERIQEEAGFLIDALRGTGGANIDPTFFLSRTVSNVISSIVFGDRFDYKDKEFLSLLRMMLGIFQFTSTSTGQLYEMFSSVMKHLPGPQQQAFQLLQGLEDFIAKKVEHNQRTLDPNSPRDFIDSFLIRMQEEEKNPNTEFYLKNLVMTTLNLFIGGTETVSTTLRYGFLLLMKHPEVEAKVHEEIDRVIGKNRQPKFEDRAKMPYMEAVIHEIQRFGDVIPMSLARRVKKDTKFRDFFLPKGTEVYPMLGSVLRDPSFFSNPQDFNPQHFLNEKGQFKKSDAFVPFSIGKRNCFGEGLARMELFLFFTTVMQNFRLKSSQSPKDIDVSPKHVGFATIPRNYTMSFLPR

CYP2A6 [2] = biological target: T1, CYP2A6; assay: CYP2A6 inactivation kinetics and partition ratio; format: biochemical
CYP2A13 [3] = biological target: T2, CYP2A13 (Homo sapiens, UniProt Q16696); assay: in vitro; format: biochemical; conditions: for activity at 10 min, 20 µM: human, pH 7.4, probe coumarin (7-hydroxylation), 20 μM in the secondary reaction
T2 sequence (Q16696 1-494): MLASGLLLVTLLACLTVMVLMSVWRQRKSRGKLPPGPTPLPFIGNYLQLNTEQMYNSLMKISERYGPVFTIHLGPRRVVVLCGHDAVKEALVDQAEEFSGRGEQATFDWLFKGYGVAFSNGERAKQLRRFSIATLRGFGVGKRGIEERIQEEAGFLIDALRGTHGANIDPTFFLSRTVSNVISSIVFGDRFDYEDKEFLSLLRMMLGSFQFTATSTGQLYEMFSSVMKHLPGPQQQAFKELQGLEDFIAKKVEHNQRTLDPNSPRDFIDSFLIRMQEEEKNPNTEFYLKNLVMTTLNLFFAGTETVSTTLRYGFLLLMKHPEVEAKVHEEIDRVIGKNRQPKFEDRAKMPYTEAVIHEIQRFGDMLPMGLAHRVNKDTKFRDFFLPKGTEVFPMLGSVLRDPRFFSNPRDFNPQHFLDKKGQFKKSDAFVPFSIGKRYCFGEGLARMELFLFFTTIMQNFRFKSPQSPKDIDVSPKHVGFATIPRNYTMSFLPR

CYP2A6 [4] = biological target: T1, CYP2A6; assay: Irreversibility of CYP2A6 inactivation; format: biochemical
CYP2A6 [5] = biological target: T1, CYP2A6; assay: Effect of NADPH and trapping agents; format: biochemical; conditions: for Percent Activity Remaining (10 min relative to 0 min): menthofuran 5 μM or β-nicotyrine 20 μM
CYP2A13 [6] = biological target: T2, CYP2A13; assay: biochemical
CYP2A6 [7] = biological target: T1, CYP2A6; assay: biochemical; format: biochemical
CYP2A6 [8] = biological target: T1, CYP2A6; conditions: cited from earlier work
CYP2A13 [9] = biological target: T2, CYP2A13; conditions: cited from earlier work

Inactivation of CYP2A6 (in words) (CYP2A6 [1]; inhibitor 20 μM with NADPH) | Inactivation of CYP2A13 (in words) (CYP2A13 [3]; inhibitor 20 μM with NADPH) | Inhibition of CYP2A6, times less potent than menthofuran and β-nicotyrine (CYP2A6 [7]; comparison of KI values) | SMILES | Loss of CYP2A6 coumarin 7-hydroxylation activity (CYP2A6 [1]; inhibitor 20 μM, in the presence of NADPH) | KI for inactivation of CYP2A6, fold lower than that of β-nicotyrine (CYP2A6 [2]) | Partition ratio, times higher than for β-nicotyrine-mediated inactivation (CYP2A6 [2]; calculated partition ratio) | activity at 10 min, 20 µM (CYP2A13 [3]) | Loss of CYP2A13 activity (CYP2A13 [3]; inhibitor 20 μM with NADPH) | Loss of CYP2A13-catalyzed coumarin 7-hydroxylation at higher concentration (CYP2A13 [3]; menthofuran 200 μM or 30 min incubations, data not shown) | Reversibility of CYP2A6 inactivation upon removal of unbound small molecules (CYP2A6 [4]) | Percent Activity Remaining (10 min relative to 0 min) (CYP2A6 [5]; inhibitor + NADPH + glutathione (10mM)) | Percent Activity Remaining (10 min relative to 0 min) (CYP2A6 [5]; inhibitor + NADPH + semicarbazide (10mM)) | Percent Activity Remaining (10 min relative to 0 min) (CYP2A6 [5]; inhibitor + NADPH) | Loss of CYP2A6 enzyme activity (CYP2A6 [5]; menthofuran 5 μM or β-nicotyrine 20 μM with NADPH, 10 min) | Ki (CYP2A13 [6]) | Ki (CYP2A6 [7]) | Inhibition of CYP2A6 (in words) (CYP2A6 [8]) | Catalytic efficiency (kcat/Km) of metabolic activation, CYP2A13 versus CYP 2A6 (CYP2A13 [9])
 |  |  | Cc1coc2c1CC[C@@H](C)C2 [Menthofuran, 3,6R-dimethyl-4,5,6,7-tetrahydro-1-benzofuran] | 95% | ~50 fold | ~ 3.5 times | 91 ± 5% | no significant loss | no loss | not reversible | 48% | 40% | 43% | about 60% | 1240 ± 260 nM | 290 ± 50 nM |  | 
no indication | no indication | 100 times | CC(C)[C@@H]1CC[C@@H](C)C[C@H]1O [Menthol, (1R,2S,5R)-2-isopropyl-5-methylcyclohexanol] |  |  |  | 87 ± 11% |  |  |  |  |  |  |  |  | 110000 ± 10700 nM | weak inhibitor | 
 |  |  | CN(CCCC(=O)c1cccnc1)N=O [NNK, 4-(methylnitrosamino)-1-(3-pyridyl)-1-butanone] |  |  |  |  |  |  |  |  |  |  |  |  |  |  | 200 fold
